# Measurements published in US8188059B2, “Compounds and methods for modulating expression of GCGR” (Isis Pharmaceuticals, Inc., priority 2006, dated 2012).
# Strand notation (5' to 3'): a small letter for the sugar, then the base; units joined by * are phosphorothioate-linked, units joined directly phosphodiester-linked; [ ] holds rarer units or linkages, { } end groups; capitals alone tell only the bases. e = 2'-O-(2-methoxyethyl) (MOE); [5mC] = 5-methylcytosine; d = 2'-deoxy (DNA)
# How the values were obtained:
# Format in all cases: in vivo, mouse
# GCGR mRNA [1] = assay: GCGR mRNA levels in liver of C57/BL6 mice, single i.p. dose (Example 4, Tables 35-41); settings: 48 h
# Experimental: (§1) Eight-week old male C57/BL6 mice (Jackson Laboratory, Bar Harbor, Me.) were administered a single dose of GCGR oligonucleotide by intraperitoneal injection at a concentration of […]. Each dose group consisted of four animals. Shown in Table 31 are the sequences, motifs and conjugates of the GCGR antisense compounds used in this study. Bolded residues indicate 2′-O-methoxyethyl (2′-MOE) moieties. All compounds comprise phosphorothioate internucleoside linkages throughout and each cytosine is replaced with 5-methylcytosine. ISIS 386626, ISIS 386627 and ISIS 386628 further comprise a C16 conjugate group attached to the 2′-O position of the sugar via a diamide linkage (2′-OCH2C(═O)N(H)(CH2)4N(H)C(═O)—(CH2)15CH3). GCGR antisense compounds target published GCGR sequences, including Genbank® Accession No. BC031885.1 (SEQ ID NO: 7).
# (§2) Mice were sacrificed 48 hours following injection to determine serum transaminase levels (Table 32); liver, white adipose tissue (WAT), spleen and kidney weight (Table 33); cholesterol, triglyceride and glucose levels (Table 34); GCGR mRNA levels (Tables 35-41); and full-length and total oligonucleotide concentration in liver and kidney (Table 42). Endpoints were assessed using methods described herein and well known to those of ordinary skill in the art. Data is included from a pre-treatment bleed (Pre-Bleed) and post-treatment bleed (Post-Bleed).
# (§3) To determine whether the phenotypic changes shown above correlated with a decrease in GCGR mRNA, treated animals were evaluated for levels of target mRNA in liver by real time PCR according to methods described herein. Tables 35 to 41 show results from direct comparisons of the antisense compounds targeting GCGR nucleic acid for their effect on target expression. Results are expressed as percent of saline control.
# [2] = ALT & AST levels, C57/BL6 mice (Example 4, Table 32); settings: for ALT Pre-Bleed / AST Pre-Bleed: pre-treatment bleed; for ALT Post-Bleed / AST Post-Bleed: 48 hours following injection
# Experimental: as §1, §2
# [3] = Organ weights: liver, white adipose tissue, spleen, kidney (Example 4, Table 33); settings: 48 h, C57/BL6 mice
# Experimental: as §1, §2
# [4] = Triglyceride, cholesterol and glucose levels, pre-bleed and post-bleed (Example 4, Table 34); set-up: TRIG Pre-Bleed / TRIG Post-Bleed / CHOL Pre-Bleed / CHOL Post-Bleed / Glucose Pre-Bleed / Glucose Post-Bleed: unit not given here; settings: C57/BL6 mice; for CHOL Pre-Bleed / Glucose Pre-Bleed / TRIG Pre-Bleed: pre-treatment bleed; for CHOL Post-Bleed / Glucose Post-Bleed / TRIG Post-Bleed: post-treatment bleed, 48 h
# GCGR mRNA [5] = assay: GCGR mRNA levels in liver and estimated ED50, C57/BL6 mice, single i.p. dose (Example 5, Tables 44, 45)
# Experimental: Eight-week old male C57/BL6 mice (Jackson Laboratory, Bar Harbor, Me.) were administered a single dose of GCGR antisense compound by intraperitonel (i.p.) injection at a concentration of 10, 3.2, 1, and 0.32 μmol·kg. Each dose group consisted of four animals. Shown in Table 43 are the sequences, motifs and conjugates of the GCGR antisense compounds used in this study. Bolded residues indicate 2′-O-methoxyethyl (2′-MOE) modifications and the italicized residues indicate methyleneoxy (4′-CH2—O-2′) BNA modifications. All antisense compounds comprise phosphorothioate internucleoside linkages throughout and each cytosine is replaced with 5-methylcytosine. GCGR antisense compounds target published GCGR nucleic acids, including Genbank Accession No. BC031885.1 (SEQ ID NO: 7).
# as §3, with “by RT,” for “by”, “Table 44” for “Tables 35 to 41”
substance,measurement,setting,value
148364 (antisense eT*eG*e[5mC]*eA*e[5mC]*dT*dT*dT*dG*dT*dG*dG*dT*dA*d[5mC]*e[5mC]*eA*eA*eG*eG) [compound 148364],GCGR mRNA levels in liver,"GCGR mRNA [1]; 6.25 mg/kg single i.p., Table 35 comparison ISIS 148364 & ISIS 386626",62% of saline control
same,GCGR mRNA levels in liver,"GCGR mRNA [1]; 6.25 mg/kg single i.p., Table 36 comparison ISIS 148364 & ISIS 386627",86% of saline control
same,GCGR mRNA levels in liver,"GCGR mRNA [1]; 6.25 mg/kg single i.p., Table 37 comparison ISIS 148364 & ISIS 386593",86% of saline control
same,GCGR mRNA levels in liver,"GCGR mRNA [1]; 6.25 mg/kg single i.p., Table 38 comparison ISIS 148364 & ISIS 386628",101% of saline control
same,GCGR mRNA levels in liver,"GCGR mRNA [1]; 6.25 mg/kg single i.p., Table 39 comparison ISIS 148364 & ISIS 386594",96% of saline control
same,GCGR mRNA levels in liver,"GCGR mRNA [1]; 12.5 mg/kg single i.p., Table 35 comparison ISIS 148364 & ISIS 386626",87% of saline control
same,GCGR mRNA levels in liver,"GCGR mRNA [1]; 12.5 mg/kg single i.p., Table 36 comparison ISIS 148364 & ISIS 386627",105% of saline control
same,GCGR mRNA levels in liver,"GCGR mRNA [1]; 12.5 mg/kg single i.p., Table 37 comparison ISIS 148364 & ISIS 386593",105% of saline control
same,GCGR mRNA levels in liver,"GCGR mRNA [1]; 12.5 mg/kg single i.p., Table 38 comparison ISIS 148364 & ISIS 386628",98% of saline control
same,GCGR mRNA levels in liver,"GCGR mRNA [1]; 12.5 mg/kg single i.p., Table 39 comparison ISIS 148364 & ISIS 386594",102% of saline control
same,GCGR mRNA levels in liver,"GCGR mRNA [1]; 25 mg/kg single i.p., Table 35 comparison ISIS 148364 & ISIS 386626",79% of saline control
same,GCGR mRNA levels in liver,"GCGR mRNA [1]; 25 mg/kg single i.p., Table 36 comparison ISIS 148364 & ISIS 386627",87% of saline control
same,GCGR mRNA levels in liver,"GCGR mRNA [1]; 25 mg/kg single i.p., Table 37 comparison ISIS 148364 & ISIS 386593",74% of saline control
same,GCGR mRNA levels in liver,"GCGR mRNA [1]; 25 mg/kg single i.p., Table 38 comparison ISIS 148364 & ISIS 386628",77% of saline control
same,GCGR mRNA levels in liver,"GCGR mRNA [1]; 25 mg/kg single i.p., Table 39 comparison ISIS 148364 & ISIS 386594",98% of saline control
same,GCGR mRNA levels in liver,"GCGR mRNA [1]; 50 mg/kg single i.p., Table 35 comparison ISIS 148364 & ISIS 386626",36% of saline control
same,GCGR mRNA levels in liver,"GCGR mRNA [1]; 50 mg/kg single i.p., Table 36 comparison ISIS 148364 & ISIS 386627",63% of saline control
same,GCGR mRNA levels in liver,"GCGR mRNA [1]; 50 mg/kg single i.p., Table 37 comparison ISIS 148364 & ISIS 386593",56% of saline control
same,GCGR mRNA levels in liver,"GCGR mRNA [1]; 50 mg/kg single i.p., Table 38 comparison ISIS 148364 & ISIS 386628",42% of saline control
same,GCGR mRNA levels in liver,"GCGR mRNA [1]; 50 mg/kg single i.p., Table 39 comparison ISIS 148364 & ISIS 386594",59% of saline control
same,ALT Pre-Bleed,[2]; 6.25 mg/kg dose group,28 IU/L
same,AST Pre-Bleed,[2]; 6.25 mg/kg dose group,47 IU/L
same,ALT Pre-Bleed,[2]; 12.5 mg/kg dose group,23 IU/L
same,AST Pre-Bleed,[2]; 12.5 mg/kg dose group,44 IU/L
same,ALT Pre-Bleed,[2]; 25 mg/kg dose group,26 IU/L
same,AST Pre-Bleed,[2]; 25 mg/kg dose group,42 IU/L
same,ALT Pre-Bleed,[2]; 50 mg/kg dose group,24 IU/L
same,AST Pre-Bleed,[2]; 50 mg/kg dose group,40 IU/L
same,ALT Post-Bleed,[2]; single i.p. dose 6.25 mg/kg,34 IU/L
same,AST Post-Bleed,[2]; single i.p. dose 6.25 mg/kg,76 IU/L
same,ALT Post-Bleed,[2]; single i.p. dose 12.5 mg/kg,32 IU/L
same,AST Post-Bleed,[2]; single i.p. dose 12.5 mg/kg,69 IU/L
same,ALT Post-Bleed,[2]; single i.p. dose 25 mg/kg,35 IU/L
same,AST Post-Bleed,[2]; single i.p. dose 25 mg/kg,87 IU/L
same,ALT Post-Bleed,[2]; single i.p. dose 50 mg/kg,40 IU/L
same,AST Post-Bleed,[2]; single i.p. dose 50 mg/kg,115 IU/L
same,Organ weight: Kidney,[3]; 6.25 mg/kg single i.p.,104 % saline control
same,Organ weight: Liver,[3]; 6.25 mg/kg single i.p.,101 % saline control
same,Organ weight: Spleen,[3]; 6.25 mg/kg single i.p.,113 % saline control
same,Organ weight: WAT,[3]; 6.25 mg/kg single i.p.,89 % saline control
same,Organ weight: Kidney,[3]; 12.5 mg/kg single i.p.,108 % saline control
same,Organ weight: Liver,[3]; 12.5 mg/kg single i.p.,100 % saline control
same,Organ weight: Spleen,[3]; 12.5 mg/kg single i.p.,96 % saline control
same,Organ weight: WAT,[3]; 12.5 mg/kg single i.p.,84 % saline control
same,Organ weight: Kidney,[3]; 25 mg/kg single i.p.,112 % saline control
same,Organ weight: Liver,[3]; 25 mg/kg single i.p.,103 % saline control
same,Organ weight: Spleen,[3]; 25 mg/kg single i.p.,115 % saline control
same,Organ weight: WAT,[3]; 25 mg/kg single i.p.,75 % saline control
same,Organ weight: Kidney,[3]; 50 mg/kg single i.p.,108 % saline control
same,Organ weight: Liver,[3]; 50 mg/kg single i.p.,103 % saline control
same,Organ weight: Spleen,[3]; 50 mg/kg single i.p.,123 % saline control
same,Organ weight: WAT,[3]; 50 mg/kg single i.p.,80 % saline control
same,CHOL Pre-Bleed,[4]; 6.25 mg/kg group,86
same,Glucose Pre-Bleed,[4]; 6.25 mg/kg group,226
same,TRIG Pre-Bleed,[4]; 6.25 mg/kg group,86
same,CHOL Post-Bleed,[4]; 6.25 mg/kg single i.p.,89
same,Glucose Post-Bleed,[4]; 6.25 mg/kg single i.p.,215
same,TRIG Post-Bleed,[4]; 6.25 mg/kg single i.p.,162
same,CHOL Pre-Bleed,[4]; 12.5 mg/kg group,85
same,Glucose Pre-Bleed,[4]; 12.5 mg/kg group,198
same,TRIG Pre-Bleed,[4]; 12.5 mg/kg group,106
same,CHOL Post-Bleed,[4]; 12.5 mg/kg single i.p.,89
same,Glucose Post-Bleed,[4]; 12.5 mg/kg single i.p.,256
same,TRIG Post-Bleed,[4]; 12.5 mg/kg single i.p.,179
same,CHOL Pre-Bleed,[4]; 25 mg/kg group,83
same,Glucose Pre-Bleed,[4]; 25 mg/kg group,219
same,TRIG Pre-Bleed,[4]; 25 mg/kg group,115
same,CHOL Post-Bleed,[4]; 25 mg/kg single i.p.,96
same,Glucose Post-Bleed,[4]; 25 mg/kg single i.p.,239
same,TRIG Post-Bleed,[4]; 25 mg/kg single i.p.,200
same,CHOL Pre-Bleed,[4]; 50 mg/kg group,81
same,Glucose Pre-Bleed,[4]; 50 mg/kg group,207
same,TRIG Pre-Bleed,[4]; 50 mg/kg group,110
same,CHOL Post-Bleed,[4]; 50 mg/kg single i.p.,94
same,Glucose Post-Bleed,[4]; 50 mg/kg single i.p.,228
same,TRIG Post-Bleed,[4]; 50 mg/kg single i.p.,177
same,GCGR mRNA levels in liver,GCGR mRNA [5]; 0.32 μmol/kg single i.p.,105% of saline control
same,GCGR mRNA levels in liver,GCGR mRNA [5]; 1 μmol/kg single i.p.,106% of saline control
same,GCGR mRNA levels in liver,GCGR mRNA [5]; 3.2 μmol/kg single i.p.,73% of saline control
same,GCGR mRNA levels in liver,GCGR mRNA [5]; 10 μmol/kg single i.p.,38% of saline control
